Results taken from patent US9593305B2, “Differentiation of pluripotent stem cells” (Janssen Biotech, Inc., priority 2008, dated 2017).

Legend:
[1] = system: H1 human embryonic stem cells; assay: Analogue screening in combination with only GDF-8, SOX17 (Example 21, Tables 18 and 19); format: cell-based; design: Sox17 Expression: % of positive control / Cell Number: % of positive control: tested at 2.5 µM; details: compound in combination with GDF8; for Cell Number: Average Total Cell Number / Sox17 Expression: Average Total Intensity: four assay plates; for Cell Number: % of positive control / Sox17 Expression: % of positive control: relative to Activin A/Wnt3a of the same plate
Method: Briefly, clusters of H1 human embryonic stem cells were grown on reduced growth factor Matrigel™ (Invitrogen; Cat #356231)-coated tissue culture plastic. Cells were passaged using collagenase (Invitrogen; Cat #17104-019) treatment and gentle scraping, washed to remove residual enzyme, and plated with even dispersal at a ratio of 1:1 (surface area) on reduced growth factor […]™ (BD Biosciences; Cat #356231)-coated 96-well black plates (Packard ViewPlates; PerkinElmer; Cat #6005182) using volumes of 100 μl/well. Cells were allowed to attach and then recover log phase growth over a 1 to 3 day time period, feeding daily with MEF conditioned medium supplemented with 8 ng/ml bFGF (R&D Systems; Cat #233-FB). Plates were maintained at 37° C., 5% CO2 in a humidified box throughout the duration of assay.
Screening was conducted using a library of the analogue compounds. Compounds from this library were made available as 5 mM stocks in 96-well plate format, solubilized in 100% DMSO (Sigma; Cat #D2650) and stored at −80° C. The library compounds were further diluted to an intermediate concentration of 0.2 mM in 50 mM HEPES (Invitrogen; Cat #15630-080), 20% DMSO and stored at 4° C. Test conditions were performed in triplicate, feeding on alternating days over a four-day assay period. Assays were initiated by aspirating culture medium from each well followed by three washes in PBS (Invitrogen; Cat #14190) to remove residual growth factors. On the first day of assay, test volumes of 200 μl per well were added to each well using DMEM:F12 base medium (Invitrogen; Cat #11330-032) supplemented with 0.5% FCS (HyClone; Cat #SH30070.03) and 200 ng/ml GDF-8 (R&D Systems, Cat #788-G8) plus 2.5 μM compound. On the third day of assay, test volumes of 100 μl per well were added to each well using DMEM:F12 base medium supplemented with 2% FCS plus 200 ng/ml GDF-8 (R&D Systems, Cat #788-G8). Positive control samples contained the same base medium supplemented with FCS and 1000 ng/ml recombinant human activin A (PeproTech; Cat #120-14) throughout the four-day assay along with Wnt3a (20 ng/ml) on days 1 and 2. Negative control samples contained DMEM:F12 base medium supplemented with FCS, adding Wnt3a on days 1 and 2 but omitting treatment with activin A.
At the conclusion of four-days of culture, assay plates were washed twice with PBS (Invitrogen; Cat #14190), fixed with 4% paraformaldehyde (Alexis Biochemical; Cat #ALX-350-011) at room temperature for 20 minutes, then washed three times with PBS and permeabilized with 0.5% Triton X-100 (Sigma; Cat #T8760-2) for 20 minutes at room temperature. Cells were washed again three times with PBS and blocked with 4% chicken serum (Invitrogen; Cat #16110082) in PBS for 30 minutes at room temperature. Primary antibody (goat anti-human SOX17; R&D Systems; Cat #AF1924) was diluted 1:100 in 4% chicken serum and added to each well for one hour at room temperature. Alexa Fluor 488 conjugated secondary antibody (chicken anti-goat IgG; Molecular Probes; Cat #AZ1467) was diluted 1:200 in PBS and added to each sample well after washing three times with PBS. To counterstain nuclei, 4 μg/ml Hoechst 33342 (Invitrogen; Cat #H3570) was added for ten minutes at room temperature. Plates were washed once with PBS and left in 100 μl/well PBS for imaging.
Imaging was performed using an IN Cell Analyzer 1000 (GE Healthcare) utilizing the 51008bs dichroic for cells stained with Hoechst 33342 and Alexa Fluor 488. Exposure times were optimized from positive control wells and from untreated negative control wells stained with secondary antibody alone. Images from 15 fields per well were acquired to compensate for any cell loss during the bioassay and subsequent staining procedures. Measurements for total cell number and total SOX17 intensity were obtained from each well using IN Cell Developer Toolbox 1.7 (GE Healthcare) software. […]

[2] = system: H1 human embryonic stem cells; assay: Analog screening with GDF-8 and growth factor/agonist pool (Example 8, Tables 7 and 8); format: cell-based
Method: Briefly, clusters of H1 human embryonic stem cells were grown on reduced growth factor […]™ (Invitrogen; Cat #356231)-coated tissue culture plastic. Cells were passaged using collagenase (Invitrogen; Cat #17104-019) treatment and gentle scraping, washed to remove residual enzyme, and plated with even dispersal at a ratio of 1:1 (surface area) on reduced growth factor […]™-coated 96-well black plates (Packard ViewPlates; PerkinElmer; Cat #6005182) using volumes of 100 μl/well. Cells were allowed to attach as clusters and then recover log phase growth over a 1 to 3 day period, feeding daily with MEF conditioned medium supplemented with 8 ng/ml bFGF (R&D Systems; Cat #233-FB). Plates were maintained at 37° C., 5% CO2 in a humidified box throughout the duration of assay. Growth factors purchased from R&D Systems were EGF (Cat #236-EG), FGF4 (Cat #235-F4), PDGF-A (Cat #221-AA), PDGF-D (Cat #1159-SB), PDGF-A/B (Cat #222-AB). […] Screening was conducted using a library of compounds that were made available as 5 mM stocks in 96-well plate format, solubilized in 100% DMSO (Sigma; Cat #D2650) and stored at −80° C. The compounds were further diluted to an intermediate concentration of 0.2 mM in 50 mM HEPES (Invitrogen; Cat #15630-080), 20% DMSO and stored at 4° C. Test conditions were performed in single wells, feeding on alternate days over a four-day assay period. Primary screening assays were initiated by aspirating culture medium from each well followed by three washes in PBS (Invitrogen; Cat #14190) to remove residual growth factors and serum. On the first day of assay, test volumes of 200 μl per well were added back containing DMEM:F12 base medium (Invitrogen; Cat #11330-032) supplemented with 0.5% FCS (HyClone; […] Cat #1324-WN) plus 2.5 μM compound. All remaining growth factors were tested at a final assay concentration of 50 ng/ml (EGF, FGF4, PDGF-A, PDGF-A/B, VEGF) with the exception of GDF-8 tested at 25 ng/ml. […] Cat #120-14). […] All remaining growth factors were tested at a final assay concentration of 50 ng/ml (EGF, FGF4, PDGF-A, PDGF-A/B, VEGF) with the exception of GDF-8 tested at 25 ng/ml. […] Cat #120-14). Negative control samples contained DMEM:F12 base medium supplemented with 2% FCS. […] At the conclusion of four-days of culture, assay plates were washed twice with PBS (Invitrogen; Cat #14190), fixed with 4% paraformaldehyde (Alexis Biochemical; Cat #ALX-350-011) at room temperature for 20 minutes, then washed three times with PBS and permeabilized with 0.5% Triton X-100 (Sigma; Cat #T8760-2) for 20 minutes at room temperature. Cells were washed again three times with PBS and blocked with 4% chicken serum (Invitrogen; Cat #16110082) in PBS for 30 minutes at room temperature. Primary antibody (goat anti-human SOX17; R&D Systems; Cat #AF1924) was diluted 1:100 in 4% chicken serum and added to each well for one hour at room temperature. Alexa Fluor 488 conjugated secondary antibody (chicken anti-goat IgG; Molecular Probes; Cat #AZ1467) was diluted 1:200 in PBS and added to each sample well after washing three times with PBS. To counterstain nuclei, 4 μg/ml Hoechst 33342 (Invitrogen; Cat #H3570) was added for ten minutes at room temperature. Plates were washed once with PBS and left in 100 μl/well PBS for imaging. Imaging was performed using an IN Cell Analyzer 1000 (GE Healthcare) utilizing the 51008bs dichroic for cells stained with Hoechst 33342 and Alexa Fluor 488. Exposure times were optimized from positive control wells and from untreated negative control wells stained with secondary antibody alone. Images from 15 fields per well were acquired to compensate for any cell loss during the bioassay and subsequent staining procedures. […] Segmentation for the nuclei was determined based on gray-scale levels (baseline range 100-300) and nuclear size. Averages and standard deviations were calculated for each replicate data set. […]

[3] = Plate 1, compound + EGF, FGF, PDGF-A, VEGF, PDGF-D, muscimol, GDF8
[4] = Plate 1, compound + EGF, FGF, PDGF-A, VEGF, PDGF-D, muscimol, GDF8, positive control Activin A/Wnt3a
[5] = Table 8: hits with greater than 25% activity of the positive control, with GDF-8 and growth factors/agonists
[6] = Plate 2, compound + EGF, FGF, PDGF-A, VEGF, PDGF-D, muscimol, GDF8
[7] = Plate 2, compound + EGF, FGF, PDGF-A, VEGF, PDGF-D, muscimol, GDF8, positive control Activin A/Wnt3a

Compound | Cell Number: Average Total Cell Number [1] | Sox17 Expression: Average Total Intensity [1] | Cell Number: % of positive control [1] [%] | Sox17 Expression: % of positive control [1] [%] | Cell Number, Average Total Cell Number [2, 3] | Sox17 Expression, Average Total Intensity [2, 3] | Cell Number, % of positive control [2, 4] | Sox17 Expression, % of positive control [2, 4] | Cell Number, % of positive control [2, 5] | Sox17 Expression, % of positive control [2, 5] | Sox17 Expression, Average Total Intensity [2, 5] | Cell Number, Average Total Cell Number [2, 6] | Sox17 Expression, Average Total Intensity [2, 6] | Cell Number, % of positive control [2, 7] | Sox17 Expression, % of positive control [2, 7]
O=C1NCCCc2cc(ccc2F)-c2ncnc(n2)Nc2cc(Cl)cc(c2)CN2CCCC1C2 (centres unmarked) [Compound 26, 10-Chloro-25-fluoro-3,5,7,14,20,31-hexaazapentacyclo[22.3.1.1˜2,6˜0.1˜8,12˜0.1˜14,18˜]hentriaconta-1(28), 2(31), 3,5,8(30), 9,11,24,26-nonaen-19-one] | 4896 | 1.65E+07 | 32.6 | 4.8 | 7415 | 8.30E+07 | 55.4 % of positive control | 33.1 % of positive control | 55.4 % of positive control | 33.1 % of positive control | 8.30E+07 | – | – | – | –
CN1CCCc2cccc(c2)-c2ncnc(n2)Nc2cccc(c2)CCNC(=O)C1 [Compound 28, 18-Methyl-3,5,7,15,18,28-hexaazatetracyclo[20.3.1.1˜2,6˜0.1˜8,12˜]octacosa-1(26), 2(28), 3,5,8(27), 9,11,22,24-nonaen-16-one] | 5236 | 4.03E+07 | 37.5 | 13.1 | – | – | – | – | 48.0 % of positive control | 30.7 % of positive control | 8.77E+07 | 7591 | 8.77E+07 | 48.0 % of positive control | 30.7 % of positive control
CCN1CCCc2cccc(c2)-c2ncnc(n2)Nc2ccccc2CNC(=O)C1 [Compound 32, 15-Ethyl-13,14,15,16,18,19-hexahydro-1H-6,2-(azeno)-7,11-(metheno)-1,3,5,15,18-benzopentaazacyclohenicosin-17(12H)-one] | 4338 | 3.63E+07 | 28.9 | 10.5 | 8066 | 9.29E+07 | 60.2 % of positive control | 37.1 % of positive control | 60.2 % of positive control | 37.1 % of positive control | 9.29E+07 | – | – | – | –
O=C1CCN2CCN(CC2)Cc2cc(ccc2Cl)Nc2ncnc(n2)-c2ccnc(c2)CCCN1 [Compound 27, 4-Chloro-1,8,10,12,17,22,26,32-octaazapentacyclo[24.2.2.1˜3,7˜1.˜9,13˜0.1˜14,18˜1]tritriaconta-3(33), 4,6,9(32), 10,12,14(31), 15,17-nonaen-23-one] | 3721 | 1.19E+07 | 26.7 | 3.9 | – | – | – | – | 50.9 % of positive control | 30.8 % of positive control | 8.81E+07 | 8044 | 8.81E+07 | 50.9 % of positive control | 30.8 % of positive control
